# According to patent US10385022B2, “3-amino-pyridines as GPBAR1 agonists” (HOFFMANN-LA ROCHE INC., priority 2011, dated 2019):
# Biological target: human GPBAR1 receptor (Homo sapiens (Human), UniProt Q8TDU6)
# Assay: functional cAMP assay in CHO-dhfr(minus) cells expressing human GPBAR1 receptors
# Format: cell-based
# Settings: CHO-dhfr(minus) cells expressing human GPBAR1, 30 min at 30° C.
# How it was run: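 CHO-dhfr- cells were transfected with human GPBAR1, and a clone was chosen by cAMP response to lithocholic acid. EC50 values come from the cAMP read-out; specificity was checked in non-transfected CHO cells.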
# human GPBAR1 receptor, sequence (Q8TDU6 whole entry): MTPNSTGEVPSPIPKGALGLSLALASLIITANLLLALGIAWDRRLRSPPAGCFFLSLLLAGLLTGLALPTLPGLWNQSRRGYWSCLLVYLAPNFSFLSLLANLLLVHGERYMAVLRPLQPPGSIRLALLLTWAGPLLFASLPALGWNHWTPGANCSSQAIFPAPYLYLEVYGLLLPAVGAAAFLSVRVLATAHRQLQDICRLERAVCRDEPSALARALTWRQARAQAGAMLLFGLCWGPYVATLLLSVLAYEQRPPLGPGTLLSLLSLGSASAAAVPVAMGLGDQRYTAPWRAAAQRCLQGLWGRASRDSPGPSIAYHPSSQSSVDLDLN
row,EC50 [nM],Compound
1,166,"COc1cc(F)c(F)cc1-c1ccncc1N(C)C(=O)c1cc(F)cc(C(F)(F)F)c1 [Example 130, N-[4-(4,5-Difluoro-2-methoxy-phenyl)-pyridin-3-yl]-3-fluoro-N-methyl-5-trifluoromethyl-benzamide]"
2,6,"COc1cc(F)ccc1-c1ccncc1N(C)C(=O)c1cc(C(F)(F)F)nc(C(F)(F)F)c1 [Example 148, N-[4-(4-Fluoro-2-methoxy-phenyl)-pyridin-3-yl]-N-methyl-2,6-bis-trifluoro methyl-isonicotinamide]"
3,114,"COc1c(-c2ccncc2N(C)C(=O)c2cc(C(F)(F)F)cc(C(F)(F)F)c2)ccc(F)c1F [Example 60, N-[4-(3,4-Difluoro-2-methoxy-phenyl)-pyridin-3-yl]-N-methyl-3,5-bis-trifluoromethyl-benzamide]"
4,452,"COC(=O)c1cc(C(=O)N(C)c2cnccc2-c2ccccc2Cl)cc(C(F)(F)F)c1 [Example 75, N-[4-(2-Chloro-phenyl)-pyridin-3-yl]-N-methyl-5-trifluoromethyl-isophthalamic acid methyl ester]"
5,801,"CN(C(=O)c1cc(C(F)(F)F)cc(C(F)(F)F)c1)c1cnccc1-c1ncccc1F [Example 68, N-(3-Fluoro-[2,4′]bipyridinyl-3′-yl)-N-methyl-3,5-bis-trifluoromethyl-benzamide]"
6,134,"COc1cc(F)ccc1-c1ccncc1N(C)C(=O)c1cc(SCCN2CCC2)cc(C(F)(F)F)c1 [Example 259, 3-(2-Azetidin-1-yl-ethylsulfanyl)-N-[4-(4-fluoro-2-methoxy-phenyl)-pyridin-3-yl]-N-methyl-5-trifluoromethyl-benzamide]"
7,23,"COc1cc(F)ccc1-c1ccncc1N(C)C(=O)c1cc(Cl)cc(C2CC2)c1 [Example 238, 3-Chloro-5-cyclopropyl-N-[4-(4-fluoro-2-methoxy-phenyl)-pyridin-3-yl]-N-methyl-benzamide]"
8,11,"COc1ccccc1-c1ccncc1N(C)C(=O)c1cc(C(F)(F)F)cc(C(F)(F)F)c1 [Example 29, N-[4-(2-Methoxy-phenyl)-pyridin-3-yl]-N-methyl-3,5-bis-trifluoromethyl-benzamide]"
9,302,"COc1ncc(Cl)cc1-c1ccncc1N(C)C(=O)c1cc(C(F)(F)F)cc(C(F)(F)F)c1 [Example 45, N-(5-Chloro-2-methoxy-[3,4′]bipyridinyl-3′-yl)-N-methyl-3,5-bis-trifluoromethyl-benzamide]"
10,38,"Cc1cc(F)ccc1-c1ccncc1N(C)C(=O)c1cc(C(F)(F)F)cc(C(F)(F)F)c1 [Example 23, N-[4-(4-Fluoro-2-methyl-phenyl)-pyridin-3-yl]-N-methyl-3,5-bis-trifluoromethyl-benzamide]"
11,268,"COc1cc(F)ccc1-c1ccncc1N(C)C(=O)c1cc(C(F)(F)F)cc(S(=O)(=O)C2CNC2)c1 [Example 280, 3-(Azctidine-3-sulfonyl)-N-[4-(4-fluoro-2-methoxy-phenyl)-pyridin-3-yl]-N-methyl-5-trifluoromethyl-benzamide]"
12,60,"CN(C(=O)c1cc(C(F)(F)F)cc(C(F)(F)F)c1)c1cnccc1-c1ccc(F)cc1OCC#N [Example 51, N-[4-(2-Cyanomethoxy-4-fluoro-phenyl)-pyridin-3-yl]-N-methyl-3,5-bis-trifluoromethyl-benzamide]"
13,105,"COc1cc(F)ccc1-c1ccncc1N(CCS(C)(=O)=O)C(=O)c1cc(C(F)(F)F)cc(C(F)(F)F)c1 [Example 192, N-[4-(4-Fluoro-2-methoxy-phenyl)-pyridin-3-yl]-N-(2-methanesulfonyl-ethyl)-3,5-bis-tri fluoro methyl-benzamide]"

# The next lines start with the compound.
row,Compound,EC50 [nM]
1,"COc1cc(F)ccc1-c1cc(C)ncc1N(CC(F)(F)F)C(=O)c1cc(C(F)(F)F)cc(S(C)(=O)=O)c1 [Example 307, N-[4-(4-Fluoro-2-methoxy-phenyl)-6-methyl-pyridin-3-yl]-3-methanesulfonyl-N-(2,2,2-trifluoro-ethyl)-5-trifluoromethyl-benzamide]",300
2,"Cc1ccccc1-c1cc(C#N)ncc1N(C)C(=O)c1cc(C(F)(F)F)cc(C(F)(F)F)c1 [Example 19, N-(6-Cyano-4-o-tolyl-pyridin-3-yl)-N-methyl-3,5-bis-trifluoromethyl-benzamide]",340
3,"COC(=O)CN(C(=O)c1cc(C(F)(F)F)nc(C(F)(F)F)c1)c1cnccc1-c1ccccc1F [Example 196, Methyl 2-(N-(4-(2-fluorophenyl)pyridin-3-yl)-2,6-bis(trifluoromethyl)isonicotinamido)acetate]",23
4,"O=C(c1cc(C(F)(F)F)cc(C(F)(F)F)c1)N(c1cnccc1-c1ccccc1Cl)C1CC1 [Example 124, N-[4-(2-Chloro-phenyl)-pyridin-3-yl]-N-cyclopropyl-3,5-bis-trifluoromethyl-benzamide]",1980
5,"NC(=O)CN(C(=O)c1cc(C(F)(F)F)nc(C(F)(F)F)c1)c1cnccc1-c1ccccc1F [Example 197, N-Carbamoylmethyl-N-[4-(2-fluoro-phenyl)-pyridin-3-yl]-2,6-bis-trifluoromethyl-isonicotinamide]",105
6,"O=C(NCCN(C(=O)c1cc(C(F)(F)F)cc(C(F)(F)F)c1)c1cnccc1-c1ccccc1Cl)OCc1ccccc1 [Example 125, (2-{(3,5-Bis-trifluoromethyl-benzoyl)-[4-(2-chloro-phenyl)-pyridin-3-yl]-amino}-ethyl)-carbamic acid benzyl ester]",1490
7,"COc1cc(F)ccc1-c1cc(C)ncc1N(C)C(=O)c1cc(SCCCCC(=O)NCC(=O)O)cc(C(F)(F)F)c1 [Example 315, [5-(3-{[4-(4-Fluoro-2-methoxy-phenyl)-6-methyl-pyridin-3-yl]-methyl-carbamoyl}-5-trifluoromethyl-phenylsulfanyl)-pentanoylamino]-acetic acid]",451
8,"COc1ncccc1-c1ccncc1N(CCS(C)(=O)=O)C(=O)c1cc(C(F)(F)F)nc(C(F)(F)F)c1 [Example 160, N-(2-Methanesulfonyl-ethyl)-N-(2-methoxy-[3,4′]bipyridinyl-3′-yl)-2,6-bis-trifluoromethyl-isonicotinamide]",281
9,"O=C(c1cc(C(F)(F)F)nc(C(F)(F)F)c1)N(CC(F)F)c1cnccc1-c1ccccc1F [Example 155, N-(2,2-Difluoro-ethyl)-N-[4-(2-fluoro-phenyl)-pyridin-3-yl]-2,6-bis-trifluoromethyl-isonicotinamide]",38
10,"COc1cc(F)ccc1-c1ccncc1N(CC(N)=O)C(=O)c1cc(C(F)(F)F)nc(C(F)(F)F)c1 [Example 177, N-Carbamoylmethyl-N-[4-(4-fluoro-2-methoxy-phenyl)-pyridin-3-yl]-2,6-bis-trifluoromethyl-isonicotinamide]",36
11,"Cc1ccccc1-c1ccncc1N(CCS(C)(=O)=O)C(=O)c1cc(C(F)(F)F)nc(C(F)(F)F)c1 [Example 163, N-(2-Methanesulfonyl-ethyl)-N-(4-o-tolyl-pyridin-3-yl)-2,6-bis-trifluoromethyl-isonicotinamide]",99
12,"COc1cc(F)ccc1-c1cc(C)ncc1N(C)C(=O)c1cc(Cl)cc(S(C)(=O)=O)c1 [Example 301, 3-Chloro-N-[4-(4-fluoro-2-methoxy-phenyl)-6-methyl-pyridin-3-yl]-5-methanesulfonyl-N-methyl-benzamide]",219
13,"CS(=O)(=O)CCN(C(=O)c1cc(C(F)(F)F)cc(C(F)(F)F)c1)c1cnccc1-c1ccccc1Cl [Example 112, N-[4-(2-Chloro-phenyl)-pyridin-3-yl]-N-(2-methanesulfonyl-ethyl)-3,5-bis-trifluoromethyl-benzamide]",237
14,"COc1cc(F)ccc1-c1cc(C)ncc1N(C)C(=O)c1cc(C(F)(F)F)cc(S(=O)(=O)C2COC2)c1 [Example 314, N-[4-(4-Fluoro-2-methoxy-phenyl)-6-methyl-pyridin-3-yl]-N-methyl-3-(oxctane-3-sulfonyl)-5-trifluoromethyl-benzamide]",115
15,"Cc1cc(C(=O)N(C)c2cnccc2-c2ccccc2C)cc(Cl)n1 [Example 119, 2-Chloro-6,N-dimethyl-N-(4-o-tolyl-pyridin-3-yl)-isonicotinamide]",610
16,"Cc1ccccc1-c1ccncc1N(C)C(=O)c1cc(Cl)cc(Cl)n1 [Example 123, 4,6-Dichloro-pyridine-2-carboxylic acid methyl-(4-o-tolyl-pyridin-3-yl)-amide]",473
17,"CN(C(=O)c1cc(C(F)(F)F)cc(C(F)(F)F)c1)c1cnccc1-c1ccccc1CCO [Example 93, N-{4-[2-(2-Hydroxy-ethyl)-phenyl]-pyridin-3-yl}-N-methyl-3,5-bis-trifluoromethyl-benzamide]",2260
